# Test results taken from patent publication US8058227B2, “Method of treating fibrosis in a subject in need thereof comprising administering a composition comprising a CSD” (Medical University of South Carolina, priority 2006, dated 2011).
# Test system: bleomycin-induced lung fibrosis
# Experiment: Bleomycin-induced lung fibrosis and CSD treatment in mice
# Format: in vivo, mouse
# Procedure: Extract from each mouse was analyzed by Western blotting (25 μg total protein per lane) using antibodies against ph-ERK, caveolin-1, PKCε, ASMA, PKCα, tenascin-C, ph-Akt, ph-JNK, and actin (loading control); and the results quantified densitometrically (averages±s.e.m. are shown). The level of each protein in “Saline” was set to 100 arbitrary units. Actin levels (loading control) were similar in all four samples (not shown). Statistical significance: ns, not significant; **p<0.01; ***p<0.001.
# Masson's Trichrome-stained sections from the experiments described in FIG. 11 were used to evaluate the effects of bleomycin and the CSD peptide on collagen expression (blue product) and lung tissue morphology. […] To generate the table, Masson's Trichrome-stained slides of lung tissue from all 41 mice sacrificed 14 days after saline or bleomycin treatment were scored blind in terms of the portion of the lung with abnormal morphology using an arbitrary scale: Normal morphology as in A=0, slightly altered morphology as in B=1, moderately altered morphology as in C=2, and severely altered morphology as in D 3. Bar in C=0.1 mm.
# This procedure was approved by the MUSC Institutional Animal Care & Use Committee. Ten-week old, male CD 1 mice (Charles River, Boston, Mass.) were anesthetized and received bleomycin (Calbiochem, La Jolla, Calif.) or saline solution by intratracheal instillation as previously described (44). Two approaches were used for CSD peptide treatment. In both approaches the peptide treatment was initiated one day prior to bleomycin. In the first approach, Alzet pumps delivering 0.5 μl/h for 14 days of a 1 mM solution of CSD peptide were implanted into twelve mice; twelve additional mice received no pump. In the second approach twelve mice received daily intraperitoneal injections of 100 μl of a 0.15 mM solution of the CSD peptide for 14 days; twelve additional mice received the scrambled peptide. One day later, six mice from each group of twelve received intratracheal bleomycin, six received saline. After 14 days, lungs were harvested. Half of each set of lungs was fixed, sectioned, and stained with Masson's Trichrome Stain. The other half of each set of lungs was dissolved in SDS-PAGE sample buffer for Western blotting experiments. Because very similar results were obtained using the two approaches to CSD peptide treatment, results were pooled.
# Student's t test was used to analyze protein expression levels in lung tissue samples obtained from normal individuals and from scleroderma patients. Protein expression levels for samples obtained from in vitro experiments and from mice were analyzed by two-way analysis of variance (ANOVA) followed by the Bonferroni post-test. For experiments in which the degree of tissue damage in mice treated with bleomycin was scored on an arbitrary scale, data was analyzed using the Mann-Whitney rank sum test. In all tests, results were regarded as statistically significant if p<0.05.
# [1] = mouse lung tissue, Western blotting, 14 days
sequence,measurement,setting,value
DGIWKASFTTFTVTKYWFYR [CSD peptide],median weight loss,bleomycin-treated mice receiving peptide (30% in untreated mice),14 % of original weight
same,tissue damage and collagen deposition,"bleomycin-treated mice, CSD peptide via Alzet pumps or intraperitoneal injection, 14 days, Masson's Trichrome",slight to moderate
same,survival and lung tissue morphology,"bleomycin-treated mice, systemic treatment with the peptide",striking positive effect
same,expression of caveolin-1 itself,"lung tissue of bleomycin-treated mice, Western blotting",did not affect
same,inhibition of bleomycin-induced decrease in PKCα,[1],about 50%
same,inhibition of bleomycin-induced decrease in PKCε,[1],at least 75%
same,inhibition of bleomycin-induced increase in ASMA,[1],at least 75%
same,inhibition of bleomycin-induced increase in ph-Akt,[1],at least 75%
same,inhibition of bleomycin-induced increase in ph-ERK,[1],at least 75%
same,inhibition of bleomycin-induced increase in ph-JNK,[1],at least 75%
same,inhibition of bleomycin-induced increase in tenascin-C,[1],at least 75%
